Measured values: ChEMBL document CHEMBL1127655, “The stabilization of DNA topoisomerase II cleavable complex by mitonafide analogs” (Bioorg Med Chem Lett, 1994)

Tests used:
Assay type in all cases: nucleic-acid assay
Details in all cases: Bos taurus
Nucleic Acid [1] = experiment: DNA binding affinity by a decrease in fluorescence of an ethidium bromide calf thymus DNA solution; (36%)
Calf thymus DNA = experiment: Calf thymus DNA binding affinity compared to ethidium bromide
Nucleic Acid [2] = experiment: DNA binding affinity by a decrease in fluorescence of an ethidium bromide calf thymus DNA solution; (25%)
Nucleic Acid [3] = experiment: DNA binding affinity by a decrease in fluorescence of an ethidium bromide calf thymus DNA solution; (33%)
Nucleic Acid [4] = experiment: DNA binding affinity by a decrease in fluorescence of an ethidium bromide calf thymus DNA solution; (41%)
Nucleic Acid [5] = experiment: DNA binding affinity by a decrease in fluorescence of an ethidium bromide calf thymus DNA solution; (10%)
Nucleic Acid [6] = experiment: DNA binding affinity by a decrease in fluorescence of an ethidium bromide calf thymus DNA solution (0%)
Nucleic Acid [7] = experiment: DNA binding affinity by a decrease in fluorescence of an ethidium bromide calf thymus DNA solution; (39%)
Nucleic Acid [8] = experiment: DNA binding affinity by a decrease in fluorescence of an ethidium bromide calf thymus DNA solution; (34%)
Nucleic Acid [9] = experiment: DNA binding affinity by a decrease in fluorescence of an ethidium bromide calf thymus DNA solution; (12%)

C50 (Calf thymus DNA) [µM]	SMILES	also measured
11	CN(C)CCN1C(=O)c2cccc3cc([N+](=O)[O-])cc(c23)C1=O	–
16	CN(C)CCCN1C(=O)c2cccc3cc([N+](=O)[O-])cc(c23)C1=O	–
28	CCN(CC)CCN1C(=O)c2cccc3c([N+](=O)[O-])ccc(c23)C1=O	–
35	CCN(CC)CCN1C(=O)c2cccc3cc([N+](=O)[O-])cc(c23)C1=O	–
10	O=C1c2cccc3cc([N+](=O)[O-])cc(c23)C(=O)N1CCN1CCCC1	–
100	CCN(CC)CCN1C(=O)c2cccc3cccc(c23)C1=O	–
14	CNCCN1C(=O)c2cccc3cc([N+](=O)[O-])cc(c23)C1=O	–

The next lines start with the compound.

SMILES	C50 (Calf thymus DNA) [µM]	also measured
CN(C)CCCN1C(=O)c2cccc3c([N+](=O)[O-])ccc(c23)C1=O	–	C50 (Nucleic Acid [1]): > 100 µM
O=C1c2cccc3cc([N+](=O)[O-])cc(c23)C(=O)N1CCO	–	C50 (Nucleic Acid [2]): > 100 µM
NCCN1C(=O)c2cccc3c([N+](=O)[O-])ccc(c23)C1=O	17	–
CN(C)CCN1C(=O)c2cccc3c([N+](=O)[O-])ccc(c23)C1=O	–	C50 (Nucleic Acid [3]): > 100 µM
CNCCN1C(=O)c2cccc3cccc(c23)C1=O	–	C50 (Nucleic Acid [4]): > 100 µM
O=C1c2cccc3cc([N+](=O)[O-])cc(c23)C(=O)N1CCc1ccccn1	–	C50 (Nucleic Acid [5]): > 100 µM
CNCCN1C(=O)c2cccc3c([N+](=O)[O-])ccc(c23)C1=O	19	–
CN(C)CCN1C(=O)c2cccc3cccc(c23)C1=O	100	–
O=C1c2cccc3c([N+](=O)[O-])ccc(c23)C(=O)N1CCc1ccccn1	–	C50 (Nucleic Acid [6]): > 100 µM
O=C1c2cccc3cc([N+](=O)[O-])cc(c23)C(=O)N1CCN1CCNCC1	–	C50 (Nucleic Acid [7]): > 100 µM
O=C1c2cccc3c([N+](=O)[O-])ccc(c23)C(=O)N1CCO	–	C50 (Nucleic Acid [8]): > 100 µM
NCCN1C(=O)c2cccc3cccc(c23)C1=O	50	–
O=C1c2cccc3cccc(c23)C(=O)N1CCO	–	C50 (Nucleic Acid [9]): > 100 µM
O=C1c2cccc3c([N+](=O)[O-])ccc(c23)C(=O)N1CCN1CCCC1	11	–
